The source made the active and inactive calls.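 Rule for the calls: active = EC50 at or below 30 µM together with a response span of at least a set limit; inactive = the rest.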
Target: GTPase HRas (Homo sapiens) (UniProt P01112)
Assay: activated Ras mutant GTP-binding inhibitors, SAR follow-up, biochemical, pyrazoline analogs, multiplex bead flow cytometry (AID 2050)
Conditions: GST-Ras beads, Bodipy-FL-GTP binding

Chain of GTPase HRas (Homo sapiens) (P01112 whole entry, looked up): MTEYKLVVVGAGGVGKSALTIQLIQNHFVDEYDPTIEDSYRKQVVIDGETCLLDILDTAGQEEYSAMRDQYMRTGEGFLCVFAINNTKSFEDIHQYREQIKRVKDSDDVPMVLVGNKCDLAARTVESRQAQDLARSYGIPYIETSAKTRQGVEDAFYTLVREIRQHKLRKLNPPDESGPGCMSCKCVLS

Question: Which EC50 does the source give for `CN(C)c1ccc(C2CC(c3ccc(Br)cc3)=NN2c2ccccc2)cc1` (stereo unspecified) here?
Answer: > 30 µM (inactive)
